Measured values as given in patent publication US8894989B2, “PARP inhibitor compounds, compositions and methods of use” (Eisai Inc., priority 2007, dated 2014).
“Also recorded” adds a separate entry of the source. Like-named read-outs stand apart in the source and are kept apart here. One block for each compound: values may come before it.

What was measured:
[1] = Bioavailability and brain/plasma levels in rats; conditions: 30 mg/kg; for Kp / bioavailability: rat; for Kp: brain; for bioavailability: plasma, po
in vivo [2] = conditions: rat, po, 30 mg/kg
in vivo [3] = conditions: mouse, po, 30 mg/kg
[4] = Bioavailability and brain/plasma levels in mice; conditions: 30 mg/kg; for Kp / bioavailability: mouse; for Kp: brain; for bioavailability: plasma, po
B16 melanoma = assay: Mouse intracranial model of B16 melanoma, combination with TMZ; type: in vivo, mice; conditions: for survival time: compound 13 10 mg/kg oral + TMZ vs TMZ as single agent (P<0.0001)
SJGBM2 glioma = conditions: for efficacy (survival): compound 13 10 mg/kg po + TMZ
[5] = tested on: Human HNSCC cell line JHU012; assay: Enhancement of radiation treatment of head and neck squamous cell carcinoma xenograft; type: in vivo, BALB/c nude mice
Experimental: Human HNSCC cell line JHU012 was used, having been previously genetically characterized and originally derived at the Johns Hopkins University Head and Neck Laboratories from human tumor explants. The cell line was maintained in RPMI 1640 medium with 10% fetal bovine serum and 1% penicillin/streptomycin at 5% CO2 in 37° C. humidified incubators. Experiments were performed on 6-week-old male BALB/c nude mice nu/nu. […] Mice were anesthetized by intraperitoneal injection of […] tribromoethanol. Tumors were established at the right flank by subcutaneous injection of 1×10^7 cells. Fourteen days post cell injection tumors were surgically exposed and measured in 3 dimensions using calipers.

BRCA-1 null cells = assay: Tumor growth in mice bearing BRCA-1 deficient tumors; type: in vivo, nu/nu mice
Experimental: 1×10^6 BRCA-1 null cells were injected subcutaneously on the right flank of female nu/nu mice (6-7 weeks old; Harlan Sprague Dawley, Indianapolis Ind.). After approximately 10-14 days, the tumors were approximately 100 mm^3. Mice were sorted into groups so that mean tumor size was similar among groups with minimum standard deviations. Dosing started the day after sorting and tumor volume was monitored three times per week. Tumors were measured in two diameters and volume calculated by […]. Mice were removed from the study when tumors reached 1500 mm^3. “Time to Endpoint” or TTE (the number of days it takes for the tumor to reach 1500 mm^3 or greater) is the endpoint of the study. […] The compound was dosed orally, daily for 28 days from start of the study—day 1. A positive control was utilized, using a well known PARP inhibitor shown to be effective as a stand alone agent in the BRCA models (Bryant et al). The positive control agent was dosed at 25 mg/kg IP qdx5 from start of experiment.

[6] = Plasma and tissue pharmacokinetic properties in mice, rats, and dogs (general statements); type: in vivo; conditions: in words
Experimental: AUC was calculated using the Linear/Log rule.
Selective PARP inhibitors were tested for basic plasma and tissue pharmacokinetic properties in mice, rats, and dogs. After assessment, this family compounds appear to be orally bioavailable in all species and to penetrate brain and tumor tissue.

Structure (SMILES): O=c1[nH]nc2c3c(cccc13)N=C(CN1CC=C(c3ccccc3)CC1)N2 [drawing 97]
Kp [1]: 0.42
bioavailability (in vivo [2]): 51%
bioavailability (in vivo [3]): 61%
Kp [4]: 0.46

Structure (SMILES): O=c1[nH]nc2c3c(cccc13)N=C(CN1CC=C(c3ccccc3)CC1)N2 [Compound 13, 8-(4-phenyl-3,6-dihydro-2H-pyridin-1-ylmethyl)-2,9-dihydro-1,2,7,9-tetraaza-phenalen-3-one]
survival time (B16 melanoma): enhance survival
survival time (B16 melanoma; listed as compound 13): significantly increased the survival time
MTS (median survival time) (SJGBM2 glioma; compound 13 10 mg/kg po 15 min pre-TMZ, combination with TMZ (P=0.002)): 25 days
efficacy (survival) (SJGBM2 glioma): enhanced survival
efficacy (survival) (SJGBM2 glioma; listed as compound 13): efficacious

Kp [1]: < 0.05
bioavailability [1]: 77%
Kp [4]: < 0.05
bioavailability [4]: 77%
Structure (SMILES): O=c1[nH]nc2c3c(cccc13)N=C(CN1CCOCC1)N2 [drawing 95]

bioavailability [1]: 50%
B/P in rats (ratio of brain to plasma levels) ([1]; rats): 71-117%
B/P in mice (ratio of brain to plasma levels) ([4]; mice): 30-64%
bioavailability [4]: 75%
Structure (SMILES): O=c1[nH]nc2c3c(cccc13)N=C(CN1CCC(c3ccccc3)CC1)N2

Kp [1]: 0.4
bioavailability [1]: 58%
Kp [4]: 0.49
bioavailability [4]: 49%
Structure (SMILES): O=c1[nH]nc2c3c(cccc13)N=C(CN1CCN(c3ccccc3)CC1)N2

Structure (SMILES): O=c1[nH]nc2c3c(cccc13)N=C(CN1Cc3ccccc3C1)N2 [drawing 99]
Kp [1]: 0.36
bioavailability [1]: 45%
Kp [4]: 0.26
bioavailability [4]: 81%

Structure (SMILES): Cn1nnc2c(C(N)=O)ncn2c1=O [TMZ, temozolomide, reference compound]
survival times (B16 melanoma; TMZ treated vs control group): No significant differences in survival times
MTS (median survival time) (SJGBM2 glioma; TMZ alone): 22.5 days
response of SJGBM2 to TMZ (SJGBM2 glioma; TMZ as single agent): ineffective

Structure (SMILES): O=c1[nH]nc2c3c(cccc13)N=C(CN1Cc3ccccc3C1)N2 [Compound 37, 8-(1,3-dihydro-isoindol-2-ylmethyl)-2,9-dihydro-1,2,7,9-tetraaza-phenalen-3-one]
tumor growth inhibition ([5]; 100 mg/kg Compound 37 PO qdx17 alone compared to vehicle controls): no significant effect on tumor growth inhibition
tumor growth inhibition ([5]; Compound 37 30 mg/kg PO + radiation compared to radiation alone): no significant effect on tumor growth inhibition
inhibition of tumor growth ([5]; Compound 37 oral (100 mg/kg) + radiation vs control): significant inhibition of tumor growth
tumor volume at end of experiment ([5]; Group 5: 100 mg/kg Compound 37 PO + Radiation (2 gy/day for 2 days), day 31, control 585.9 mm^3, p<0.01): 209.04 mm^3
mean survival time (B16 melanoma; Compound 37 12.5 mg/kg oral + TMZ vs TMZ as single agent): significantly higher; also recorded: enhance survival
animal survival (SJGBM2 glioma; 10 mg/kg Compound 37 + TMZ five days followed by Compound 37 100 mg/kg for 14 days vs 10 mg/kg Compound 37 + TMZ five days): significantly increased animal survival
tumor growth (BRCA-1 null cells; 100 mg/kg Compound 37 orally, daily for 28 days, vs vehicle controls): effective in significantly retarding tumor growth; also recorded: inhibition of growth
time until tumors start to grow after dosing stopped at day 28 (BRCA-1 null cells; Compound 37 100 mg/kg po daily for 28 days): 10 to 14 days
tumor growth delay compared to positive control (BRCA-1 null cells; Compound 37 100 mg/kg po vs positive control PARP inhibitor 25 mg/kg IP qdx5 (p<0.05)): delayed tumor growth compared to the positive control

oral bioavailability [6]: good bioavailability
ratio of brain to plasma levels [6]: very low
Structure (SMILES): O=c1[nH]nc2c3c(cccc13)N=C(CN1CCOCC1)N2 [prior art compound]
